Settings: Liquid, Ebulliometric method (Recirculating still)

COCC(CO)OC (stereo not given) [2,3-dimethoxy-1-propanol]
Settings | vapor or sublimation pressure [kPa]
337.95 K | 3.2
368.95 K | 7.84
398.1 K | 19.27
408.55 K | 27.33
413.05 K | 32.46
419.7 K | 38.8
423.55 K | 45.86
431.55 K | 59.8
433.15 K | 65.6
434.85 K | 70.66
437.35 K | 76.53
439.75 K | 83.33
441.65 K | 87.26
444.45 K | 95.73
446.65 K | 100.79

— the NIST ThermoML archive (doi:10.1021/je500606d)
